Test results published in BindingDB's records for doi:10.1016/j.bmc.2019.115216 (National and Kapodistrian University of Athens, 2020).
pIC50: −log10 of the molar value.

Biological target: Autotaxin (ENPP2) (Mus musculus) (UniProt Q9R1E6)
Assay: Inhibition of recombinant mouse N-terminal polyHis-tagged ATX-beta (Ser49 to Ile862 residues) expressed in HEK293 cells assessed as reduction in cleavage of LPC into LPA and choline using LPC(16:0) as substrate by Amplex red reagent based fluorescence assay

Row | pIC50 | Compound
1 | < 5.30 | O=C(NCc1ccc(OCc2ccc(-c3nn[nH]n3)cc2)cc1)[C@@H]1CCC(=O)N1Cc1ccccc1
2 | 7.30 | CC1(C)OB(c2ccc(COc3ccc(CNC(=O)[C@@H]4CCC(=O)N4Cc4ccccc4)cc3)cc2)OC1(C)C
3 | < 5.30 | O=C(NCc1ccc(O)cc1)[C@@H]1CCC(=O)N1Cc1ccccc1
4 | < 5.30 | O=C(NCCc1c[nH]cn1)c1ccc(COc2ccc(CNC(=O)[C@@H]3CCC(=O)N3Cc3ccc(F)cc3)cc2)cc1
5 | < 5.30 | COC(=O)c1ccc(COc2ccc(CN3C(=O)CC[C@H]3Cn3ccnc3)cc2)cc1
6 | < 5.30 | O=C(O)c1ccc(COc2ccc(CN3CCC[C@H]3C(=O)NCc3ccccc3)cc2)cc1
7 | 6.10 | O=C(O)c1ccc(COc2ccc(CNC(=O)[C@@H]3CCCN3Cc3ccc(F)cc3)cc2)cc1
8 | < 5.30 | O=C(NCc1ccc(OCc2ccccc2)cc1)[C@@H]1CCC(=O)N1Cc1ccccc1
9 | 6.74 | CC1(C)OB(c2ccc(COc3ccc(CNC(=O)[C@H]4CCC(=O)N4Cc4ccccc4)cc3)cc2)OC1(C)C
10 | < 5.30 | O=C(O)c1ccc(COc2ccc(CNC(=O)[C@H]3CCCN3Cc3ccc(F)cc3)cc2)cc1
11 | < 5.30 | NS(=O)(=O)c1ccc(COc2ccc(CNC(=O)[C@@H]3CCC(=O)N3Cc3ccc(C(F)(F)F)cc3)cc2)cc1
12 | < 5.30 | O=C(NCc1ccc(OCc2cn(-c3ccccc3)nn2)cc1)[C@@H]1CCC(=O)N1Cc1ccccc1
13 | < 5.30 | O=C(NCc1ccccc1)[C@@H]1CCCN1Cc1ccc(OCc2ccc(-c3nn[nH]n3)cc2)cc1
14 | < 5.30 | O=C(NCCc1c[nH]cn1)c1ccc(COc2ccc(CNC(=O)[C@@H]3CCC(=O)N3Cc3ccccc3)cc2)cc1
15 | < 5.30 | O=C(O)c1ccc(COc2ccc(CN3C(=O)CC[C@H]3Cn3ccnc3)cc2)cc1
16 | 7.46 | O=C(NCc1ccc(OCc2ccc(B(O)O)cc2)cc1)[C@@H]1CCC(=O)N1Cc1ccccc1
17 | < 5.30 | O=C(O)c1ccc(COc2ccc(CNC(=O)[C@@H]3CCCN3Cc3ccccc3)cc2)cc1
18 | < 5.30 | O=C(NCc1ccc(OCc2ccncc2)cc1)[C@@H]1CCC(=O)N1Cc1ccccc1

Row | pIC50 | Compound
19 | 6.92 | CC1(C)OB(c2ccc(COc3ccc(CNC(=O)[C@@H]4CCC(=O)N4Cc4ccc(F)cc4)cc3)cc2)OC1(C)C
20 | < 5.30 | O=C(O)c1ccc(COc2ccc(CNC(=O)[C@@H]3CCC(=O)N3Cc3ccc(F)cc3)cc2)cc1
21 | < 5.30 | NS(=O)(=O)c1ccc(COc2ccc(CNC(=O)[C@@H]3CCC(=O)N3Cc3ccccc3)cc2)cc1
22 | < 5.30 | COC(=O)c1ccc(COc2ccc(CNC(=O)[C@@H]3CCC(=O)N3Cc3ccccc3)cc2)cc1
23 | < 5.30 | O=C(NCc1ccc(OCc2ccc(-c3nn[nH]n3)cc2)cc1)[C@@H]1CCC(=O)N1Cc1ccc(F)cc1
24 | < 5.30 | NS(=O)(=O)c1ccc(COc2ccc(CNC(=O)[C@@H]3CCC(=O)N3Cc3ccc(F)cc3)cc2)cc1
25 | < 5.30 | O=C(O)c1ccc(COc2ccc(CN3C(=O)CC[C@H]3C(=O)NCc3ccccc3)cc2)cc1
26 | < 5.30 | O=C(NCc1ccccc1)[C@@H]1CCC(=O)N1Cc1ccc(OCc2ccc(-c3nn[nH]n3)cc2)cc1
27 | < 5.30 | O=C(NCc1ccc(OCc2ccc(-c3nn[nH]n3)cc2)cc1)[C@@H]1CCCN1Cc1ccccc1
28 | 5.35 | O=C(O)c1ccc(COc2ccc(CNC(=O)[C@@H]3CCC(=O)N3Cc3ccccc3)cc2)cc1
29 | < 5.30 | O=C(O)c1ccc(COc2ccc(CNC(=O)[C@@H]3CCC(=O)N3Cc3ccc(C(F)(F)F)cc3)cc2)cc1
30 | < 5.30 | O=C(O)c1ccc(COc2ccc(CNC(=O)[C@@H]3CCC(=O)N3Cc3ccc(Br)cc3)cc2)cc1
31 | < 5.30 | O=C(NCc1ccccc1)[C@@H]1CCC(=O)N1Cc1ccccc1
32 | < 5.30 | O=C(O)c1ccc(COc2ccc(CNC(=O)[C@H]3CCC(=O)N3Cc3ccccc3)cc2)cc1
33 | < 5.30 | NS(=O)(=O)c1ccc(C(=O)NC[C@@H]2CCC(=O)N2Cc2ccccc2)cc1
34 | < 5.30 | O=C1CC[C@@H](C(=O)NCc2ccc(OCc3ccc(C(=O)O)cc3)cc2)N1
35 | 6.15 | O=C(NO)c1ccc(COc2ccc(CNC(=O)[C@@H]3CCC(=O)N3Cc3ccccc3)cc2)cc1
